Data reported in BindingDB's records for patent US20230295182 (Idorsia Pharmaceuticals, 2023).

Target: Galectin-3 (Homo sapiens, UniProt P17931)
Experiment: Evaluation of Compound Inhibitory Activity (IC50)
Method: Briefly, compounds are serially diluted in DMSO (working dilutions). ASF-coated 384 well plates are supplemented with 22.8 uL/well of biotinylated hGal-3 or hGal-1 in assay buffer (i.e. 300-1000 ng/mL biotinylated hGal-3 or hGal-1) to which 1.2 uL of compound working dilutions are added and mixed. Plates are incubated for 3 hours at 4 C., then washed with cold assay buffer (3x50 uL), incubated for 1 hour with 25 uL/well of a streptavidin-peroxidase solution (diluted in assay buffer to 80 ng/mL) at 4 C., followed by further washing steps with assay buffer (3x50 uL). Finally, 25 µL/well of ABTS substrate is added.

Galectin-3, sequence (P17931 whole entry): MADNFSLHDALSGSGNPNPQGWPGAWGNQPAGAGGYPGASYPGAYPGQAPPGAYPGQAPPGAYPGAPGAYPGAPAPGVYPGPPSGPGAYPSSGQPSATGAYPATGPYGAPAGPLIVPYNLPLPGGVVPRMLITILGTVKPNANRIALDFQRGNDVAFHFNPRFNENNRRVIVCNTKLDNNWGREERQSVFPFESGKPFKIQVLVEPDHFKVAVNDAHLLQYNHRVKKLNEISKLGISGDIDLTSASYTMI

IC50 | Compound
0.046 µM | CO[C@@H]1[C@@H](n2cc(-c3ccc(C)c(F)c3F)nn2)[C@@H](O)[C@@H](CO)O[C@@H]1CN1CC2(CCCCC2)NC1=O [US20230295182, Example 4.01]
0.23 µM | OC[C@H]1O[C@H](CC2=NOC3(CCCCC3)C2)[C@H](OCC(F)F)[C@@H](n2cc(-c3cc(F)c(F)c(F)c3)nn2)[C@H]1O [US20230295182, Example 1.67]
0.5 µM | CO[C@@H]1[C@@H](n2cc(-c3cc(F)c(F)c(F)c3)nn2)[C@@H](O)[C@@H](CO)O[C@@H]1CC1=NOC2(CCC(C)CC2)C1 (stereo partly drawn) [US20230295182, Example 1.30]
